Experimental data taken from patent US11987568B2, “Allosteric inhibitor of WEE1 kinase” (H. LEE MOFFITT CANCER CENTER AND RESEARCH INSTITUTE, INC., priority 2018, dated 2024).
≈ marks a conversion by molar mass, not a printed value. Like-named read-outs stand apart in the source and are kept apart here.

Columns and labels:
[1] = Microsome Stability, Human; type: in vitro ADME
Experimental: (§1) ADME studies with 55152 (18-B3) and 367416 (16-G9): The solubility, microsome stability and plasma stability of these two compounds were also determined (Table 2).

WEE1 = WEE1 (Homo sapiens, UniProt P30291); test: Endogenous WEE1 auto-phosphorylation in cells (WEE1 IP, pTyr immunoblot); type: cell-based; conditions: LNCaP cells, 10 μM overnight (FIG. 3B)
Experimental: The reaction mix was then subjected to immunoprecipitated with WEE1 antibodies, followed by immunoblotting with pTyr antibodies (top panel). As a control, purified ACK1 protein was incubated in the reaction buffer containing ATP, in presence of 100 nM epigenetic inhibitors. The reaction mix was then subjected to immunoprecipitated with ACK1 antibodies, followed by immunoblotting with pTyr antibodies (bottom panel). […] In addition, the lysates were also subjected to immunoblotting with actin antibodies (bottom panel). […] In addition, the lysates were also subjected to immunoblotting with actin antibodies (bottom panel). […] In addition, the lysates were also subjected to immunoblotting with actin antibodies (bottom panel). To determine direct binding of these compounds causing WEE1 inhibition, a full length WEE1 kinase protein was incubated with the compounds. […] These inhibitors were further validated by assessing their ability to suppress endogenous WEEE activity; LNCaP cells were treated with 10 μM of these compounds overnight.

Plasma Stability, Mouse = type: in vitro ADME
Experimental: as §1

[2] = Microsome Stability, Mouse; type: in vitro ADME
Experimental: as §1

[3] = target: full length human WEE1 kinase (Homo sapiens, UniProt P30291); test: In vitro kinase assay, purified full length WEE1, pTyr immunoblot; type: biochemical; set-up: a full length WEE1 kinase protein was incubated with the compounds; conditions: purified full length WEE1, 100 nM (FIG. 3A, 4A)
Experimental: The reaction mix was then subjected to immunoprecipitated with WEE1 antibodies, followed by immunoblotting with pTyr antibodies (top panel). As a control, purified ACK1 protein was incubated in the reaction buffer containing ATP, in presence of 100 nM epigenetic inhibitors. The reaction mix was then subjected to immunoprecipitated with ACK1 antibodies, followed by immunoblotting with pTyr antibodies (bottom panel). […] In addition, the lysates were also subjected to immunoblotting with actin antibodies (bottom panel). […] In addition, the lysates were also subjected to immunoblotting with actin antibodies (bottom panel).
FIGS. 4A-4B show structures of ‘hits’ identified in WEE1 epigenetic inhibitor screen. […] The reaction mix was then subjected to immunoprecipitated with WEE1 antibodies, followed by immunoblotting with pTyr antibodies. […] In addition, the lysates were also subjected to immunoblotting with actin antibodies (bottom panel).
To determine direct binding of these compounds causing WEE1 inhibition, a full length WEE1 kinase protein was incubated with the compounds. […] As a control, purified ACK1 kinase was also incubated with these compounds, none of these compounds were able to inhibit ACK1 kinase activity. These inhibitors were further validated by assessing their ability to suppress endogenous WEEE activity; LNCaP cells were treated with 10 μM of these compounds overnight.

Wee1 KD = target: T1, Wee1 KD (Homo sapiens, UniProt P30291); test: Differential Scanning Fluorimetry (DSF), Wee1 KD; type: binding; conditions: kinase domain purified from HEK293T cells
T1 construct: WEE1 & WEE2 (as control) kinase domains from mammalian cells (HEK293T cells) were purified
Experimental: Binding study of WEE1 epigenetic inhibitors: To identify the precise binding region/domain of WEE1 epigenetic inhibitors, WEE1 & WEE2 (as control) kinase domains from mammalian cells (HEK293T cells) were purified. The binding of inhibitors was assessed using Differential Scanning Fluorimetry (DSF).

Solubility = type: physicochemical
Experimental: as §1

T1 sequence (P30291 299-569): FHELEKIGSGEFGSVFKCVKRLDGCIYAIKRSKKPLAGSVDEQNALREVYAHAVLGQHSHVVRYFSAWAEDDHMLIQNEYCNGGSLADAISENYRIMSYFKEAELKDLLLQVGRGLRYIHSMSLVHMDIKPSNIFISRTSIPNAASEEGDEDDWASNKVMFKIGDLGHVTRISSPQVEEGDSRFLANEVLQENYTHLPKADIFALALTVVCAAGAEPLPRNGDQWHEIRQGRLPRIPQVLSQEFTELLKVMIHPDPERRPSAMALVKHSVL
full length human WEE1 kinase, sequence (P30291 whole entry): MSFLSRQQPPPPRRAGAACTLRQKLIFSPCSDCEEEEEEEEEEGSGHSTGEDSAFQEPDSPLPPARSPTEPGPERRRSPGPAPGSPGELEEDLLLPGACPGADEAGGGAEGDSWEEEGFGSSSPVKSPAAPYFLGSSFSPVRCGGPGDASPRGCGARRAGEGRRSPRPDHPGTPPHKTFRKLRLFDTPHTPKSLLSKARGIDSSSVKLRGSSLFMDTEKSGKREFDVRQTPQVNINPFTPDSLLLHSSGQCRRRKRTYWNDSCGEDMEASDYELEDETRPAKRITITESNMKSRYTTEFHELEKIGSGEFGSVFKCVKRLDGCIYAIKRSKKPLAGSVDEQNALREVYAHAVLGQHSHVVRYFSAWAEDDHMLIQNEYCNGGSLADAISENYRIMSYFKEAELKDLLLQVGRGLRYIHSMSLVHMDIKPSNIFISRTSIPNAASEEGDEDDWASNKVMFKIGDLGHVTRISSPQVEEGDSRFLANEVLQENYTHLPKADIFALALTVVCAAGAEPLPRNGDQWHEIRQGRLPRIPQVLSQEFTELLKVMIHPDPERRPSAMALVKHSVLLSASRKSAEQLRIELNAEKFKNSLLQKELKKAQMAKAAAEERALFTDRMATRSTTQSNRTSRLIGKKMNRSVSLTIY
WEE1, sequence (P30291 whole entry): as above

Nc1ccc(NC(=O)c2ccc(C(=O)Nc3ccc(N)cc3)cc2)cc1 [SG5-061, N^1,N^4-bis(4-aminophenyl)terephthalamide]
Microsome Stability % remaining @ 1 hr Human [1]: 64.56%
WEE1 auto-phosphorylation (WEE1): significant loss of WEE1 auto-phosphorylation
Plasma Stability % remaining @ 3 hrs Mouse (Plasma Stability, Mouse): 50.76%
Microsome Stability % remaining @ 1 hr Mouse [2]: 95.21%
WEE1 kinase activity (pTyr immunoblot) ([3]; listed as 18-B3): suppresses kinase activation better than 16-G9
WEE1 kinase activity (pTyr immunoblot) ([3]; listed as 55152 (18-B3)): significant loss of WEE1 kinase activity
ΔTm for Wee1 KD (° C.) (Wee1 KD): 0.5 °C
ΔTm for Wee1 KD (° C.) (Wee1 KD; listed as 55152 (18-B3)): 0.8 °C
solubility (Solubility; aqueous buffer, pH 5.0, read-out: Solubility (ug/mL) pH 5.0): 0.13 µg/mL (≈ 0.375 µM)
solubility (Solubility; pH 6.2, aqueous buffer, read-out: Solubility (ug/mL) pH 6.2): 0.22 µg/mL (≈ 0.635 µM)
solubility (Solubility; pH 7.4, aqueous buffer, read-out: Solubility (ug/mL) pH 7.4): 0.15 µg/mL (≈ 0.433 µM)
